Source: patent US20120022121A1, “INDOLES, DERIVATIVES AND ANALOGS THEREOF AND USES THEREFOR” (priority 2007, published 2012)

How the values were obtained:
CV-1 = experiment: Cell viability SRB assay, 96 h; assay type: cell-based; details: Cercopithecidae, CV-1 fibroblast cell line
Protocol: (§1) Cells were plated in 96-well plates at a density of 800-5,000 cells/well, depending on the cell line, in their required growth media containing 10% fetal bovine serum. Preliminary studies were performed with each cell line using a variety of cell densities and incubation times to determine appropriate seeding densities. The compound of interest was dissolved in DMSO, diluted in cell culture medium (final DMSO concentration was less than 0.5% v/v), and added to quadruplicate wells at final concentrations ranging from 0 to 100 μM. Control wells to which only drug-free vehicle was added were included as negative controls.
(§2) Cells were incubated for 96 hour at 37° C. in a humidified atmosphere containing 5% carbon dioxide.

DU-145 = experiment: Cell viability SRB assay, 96 h; assay type: cell-based; details: Homo sapiens, DU-145, 96 h
Protocol: (§3) Cell viability (LNCaP, PC-3 prostate, DU145, PPC-1, and TSU-Pr1 prostate cancer cell lines, HT-29 colon cancer cell line, and MCF-7 breast cancer cell line) was quantitated using the sulforhodamine B (SRB) assay after 96 h coincubation with different concentrations of compound in 96-well plates. Cell viability of leukemia cells (K562 and doxorubicin-resistant K562/Dox) was quantitated by MTT assay after 96 h coincubation with different concentrations of compound in 96-well plates. Drug-induced apoptosis was determined by anti-histone ELISA assay and DNA laddering. Cell cycle progression was assessed by propidium iodide staining and fluorescence-activated cell sorting (FACS) analysis. In vitro tubulin polymerization assay was determined by CytoDYNAMIX ScreenTM3 (CDS-03) kits according to the manufacturer's instructions. Anti-apoptosis protein (Bcl-2 and Bcl-xl) and pro-apoptosis protein (Bax) were examined in LNCaP and PC-3 after 24 h incubation with different concentrations of compound 13 by Western blot assay. In vivo PC-3 xenograft studies were conducted by i.v. dosing of 50 mg/kg, 100 mg/kg and 150 mg/kg for 2 weeks.
as §1, §2
(§4) Cells were stained with SRB solution. […] WinNonlin was provided by a Pharsight Academic License to The Ohio State University.

LNCaP [1] = experiment: Cell viability SRB assay, 96 h; assay type: cell-based; details: Homo sapiens
Protocol: as §3, §1, §2, §4

PC-3 [2] = experiment: Cell viability SRB assay, 96 h; assay type: cell-based; details: Homo sapiens, PC-3, 96 h
Protocol: as §3, §1, §2, §4

PPC-1 [3] = experiment: Cell viability SRB assay, 96 h; assay type: cell-based; details: Homo sapiens, PPC-1, 96 h
Protocol: as §3, §1, §2, §4

TSU = experiment: Cell viability SRB assay, 96 h; assay type: cell-based; details: Homo sapiens, TSU (TSU-Pr1)
Protocol: as §3, §1, §2, §4

A375 = experiment: Cytotoxicity assay (SRB, 48 h); assay type: cell-based, human
WM164 = experiment: Cytotoxicity assay (SRB, 48 h); assay type: cell-based, human; details: WM164 melanoma
LNCaP [4] = experiment: Cytotoxicity assay (SRB, 96 h); assay type: cell-based; details: Homo sapiens
PC-3 [5] = experiment: Cytotoxicity assay (SRB, 96 h); assay type: cell-based; details: Homo sapiens, PC-3, 96 h
Du 145 = experiment: Cytotoxicity assay (SRB, 96 h); assay type: cell-based; details: Homo sapiens; Du 145, 96 h
PPC-1 [6] = experiment: Cytotoxicity assay (SRB, 96 h); assay type: cell-based; details: Homo sapiens, PPC-1, 96 h
[7] = tested on: melanoma and prostate cancer cell lines; experiment: Cytotoxicity assay (SRB), summary over the cell lines of Table 3; assay type: cell-based; details: Homo sapiens
[8] = Homo sapiens, A-375, 48 h, A375 melanoma
[9] = Homo sapiens, A-375, A375 melanoma

Row | SMILES | IC50 (CV-1) [µM] | IC50 (DU-145) [µM] | IC50 (LNCaP [1]) [µM] | IC50 (PC-3 [2]) [µM] | IC50 (PPC-1 [3]) [µM] | IC50 (TSU) [µM] | melting point [°C] | IC50 (A375; [8]) [µM] | IC50 (WM164; Homo sapiens, WM164, 48 h) [µM] | IC50 (LNCaP [4]) [µM] | IC50 (PC-3 [5]) [µM] | IC50 (Du 145) [µM] | IC50 (PPC-1 [6]) [µM] | IC50 [7] [µM] | IC50 (A375; A375 melanoma) [µM] | IC50 (WM164) [µM] | IC50 (A375; [9]) [µM] | IC50 (WM164; Homo sapiens) [µM]
1 | O=S(=O)(c1ccccc1)n1c(B(O)O)cc2ccccc21 [Compound 7, 1-(phenylsulfonyl)-1H-indol-2-yl-boronic acid, reference compound] | > 100 | 72 ± 3.4 | 23.1 ± 4 | 73.9 ± 7.1 | 80.8 ± 1.2 | 48.2 ± 3.4 |  |  |  |  |  |  |  |  |  |  |  | 
2 | O=C(c1cccc(-c2cc3ccccc3n2S(=O)(=O)c2ccccc2)c1)c1cc2ccccc2n1S(=O)(=O)c1ccccc1 [Compound 12, (1-Benzenesulfonyl-1H-indol-2-yl)-[3-(1-benzenesulfonyl-1H-indol-2-yl)phenyl]methanone] | > 100 | > 100 | > 100 | > 100 | > 100 | > 100 | 189 to 190 |  |  |  |  |  |  |  |  |  |  | 
3 | COc1cc(C(O)(c2nc3ccccc3s2)c2nc3ccccc3s2)cc(OC)c1OC [Compound 127, Bis(benzo[d]thiazol-2-yl)(3,4,5-trimethoxyphenyl)methanol] |  |  |  |  |  |  | 50 to 52 | > 10 | > 10 | > 10 | > 10 | > 10 | > 10 | > 10 |  |  |  | 
4 | COc1cc(C(=O)c2cc3cc(Cl)ccc3[nH]2)cc(OC)c1OC [Compound 115, (5-Chloro-1H-indol-2-yl)(3,4,5-trimethoxyphenyl)methanone] |  |  |  |  |  |  | 252 to 254 |  |  | > 10 | > 10 | > 10 | > 10 | 1 to 10 | 1.47 | 2.16 |  | 
5 | COc1cc(C(=O)c2nc3ccccc3[nH]2)cc(OC)c1OC [Compound 118, (1H-benzo[d]imidazol-2-yl)(3,4,5-trimethoxyphenyl)methanone] |  |  |  |  |  |  | 191 to 193 | > 10 | > 10 | > 10 | > 10 | > 10 | > 10 | > 10 |  |  |  | 
6 | c1ccc2c(Cc3c[nH]c4ccccc34)c[nH]c2c1 [Compound 128, di(1H-indol-3-yl)methane, reference compound] | > 100 | 39.7 ± 2.6 | 5.8 ± 0.5 | 39.4 ± 1.7 | 31.8 ± 1.1 | 45.7 ± 1.1 |  |  |  |  |  |  |  |  |  |  |  | 
7 | COc1cc(C(=O)c2nc3ccccc3o2)cc(OC)c1OC [Compound 123b, Benzo[d]oxazol-2-yl(3,4,5-trimethoxyphenyl)methanone] |  |  |  |  |  |  | 89 to 91 | > 10 | > 10 | > 10 | > 10 | > 10 | > 10 | > 10 |  |  |  | 
8 | COc1ccc2cc(C(=O)c3cc(OC)c(OC)c(OC)c3)[nH]c2c1 [Compound 114, (6-Methoxy-1H-indol-2-yl)(3,4,5-trimethoxyphenyl)methanone] |  |  |  |  |  |  | 167 to 169 |  |  | > 10 | > 10 | > 10 | > 10 | > 10 |  |  | > 10 | > 10
9 | COc1cc(C(=O)c2cc3ccc(Cl)cc3[nH]2)cc(OC)c1OC [Compound 112, (6-Chloro-1H-indol-2-yl)(3,4,5-trimethoxyphenyl)methanone] |  |  |  |  |  |  | 207 to 209 | > 10 | > 10 | > 10 | > 10 | > 10 | > 10 | > 10 |  |  |  | 
10 | COc1cc(C(=O)c2nc3ccccc3s2)cc(OC)c1OC [Compound 123a, Benzo[d]thiazol-2-yl(3,4,5-trimethoxyphenyl)methanone] |  |  |  |  |  |  | 144 to 146 | > 10 | > 10 | > 10 | > 10 | > 10 | > 10 | > 10 |  |  |  | 
11 | O=S(=O)(c1ccccc1)n1cc(B(O)O)c2ccccc21 [Compound 129, reference compound] | > 100 | 55.1 ± 2.5 | 18.3 ± 1.4 | 59.9 ± 1.8 | 41.1 ± 1.8 | 39.3 ± 1.6 |  |  |  |  |  |  |  |  |  |  |  | 
12 | O=S(=O)(c1ccccc1)n1c(-c2cccc(C(O)c3cc4ccccc4n3S(=O)(=O)c3ccccc3)c2)cc2ccccc21 (centres unmarked) [Compound 8, (1-benzenesulfonyl-1H-indol-2-yl)-[3-(1-benzenesulfonyl-1H-indol-2-yl)phenyl]methanol] | > 100 | > 100 | > 100 | > 100 | 30 | > 100 | 81 to 83 |  |  |  |  |  |  |  |  |  |  | 
13 | COc1ccc2[nH]c(C(=O)c3cc(OC)c(OC)c(OC)c3)cc2c1 [Compound 148, (5-Methoxy-1H-indol-2-yl)(3,4,5-trimethoxyphenyl)methanone] |  |  |  |  |  |  |  |  |  | 0.05 | 0.04 | 0.08 | 0.05 | 0.05 |  |  | 0.03 | 0.04
14 | O=S(=O)(c1ccccc1)n1c(Br)cc2ccccc21 [Compound 3, 2-bromo-1-(benzenesulfonyl)indole] | > 100 | 63.9 ± 1.9 | 29.6 ± 2.2 | 69.3 ± 2.1 | 52.1 ± 1.1 | 44.9 ± 2 |  |  |  |  |  |  |  |  |  |  |  | 
15 | O=Cc1cccc(-c2cc3ccccc3n2S(=O)(=O)c2ccccc2)c1 [Compound 5] | > 100 | 19.7 ± 1.3 | 17.7 ± 1.2 | 23.2 ± 1.4 | 13.9 ± 0.2 | 11.5 ± 0.1 | 126 to 138 |  |  |  |  |  |  |  |  |  |  | 
16 | COc1cc(C(=O)c2cc3ccc(Cl)cc3n2Cc2ccccc2)cc(OC)c1OC [Compound 120, (1-Benzyl-6-chloro-1H-indol-2-yl)(3,4,5-trimethoxyphenyl)methanone] |  |  |  |  |  |  |  | > 10 | > 10 | > 10 | > 10 | > 10 | > 10 | > 10 |  |  |  | 
17 | COc1cc(C(=O)c2cc3ccc(F)cc3n2C)cc(OC)c1OC [Compound 121, (6-Fluoro-1-methyl-1H-indol-2-yl)(3,4,5-trimethoxyphenyl)methanone] |  |  |  |  |  |  |  |  |  | 1.05 | > 10 | > 10 | 8.3 | 1 to 10 |  |  | 5.87 | 7.5
